Eleven compounds from patent US10227331B2 (priority 2015, dated 2019) can be followed below.

The target of series [1] is VIM-1 (Pseudomonas aeruginosa (strain ATCC 15692 / DSM 22644 / CIP 104116 / JCM 14847 / LMG 12228 / 1C / PRS 101 / PAO1), UniProt A0A0F7KYQ8). As to the kind of experiment: biochemical. To be noted: CCF2-FA substrate, 2 hours at 25° C. How it is done:
Enzyme Activity: Determination of IC50
The Class B enzyme activities were measured in the presence of the test inhibitor in a fluorescence assay against a commercially available substrate consisting of a cephalosporin core linking 7-hydroxycoumarin to fluorescein (CCF2-FA). […] In a 384-well microplate, the test inhibitor was incubated with the metallo-β-lactamase enzyme and the substrate for 2 hours at 25° C. […] The IC50 value was determined from semi-logarithmic plots of enzyme inhibition versus inhibitor concentration, with a curve generated using a 4-parameter fit.

In series [2] the test system is Escherichia coli expressing NDM-1 (CLB30005, CLB30016). It counts as cell-based. To be noted: with imipenem 1 μg/ml, 95% inhibition of bacterial growth; for Escherichia coli MITC95: NDM-1 (CLB30016). How it is done:
(§1) Antibiotic Potentiation Activity: Determination of Synergistic Concentration
(§2) The bacterial strains tested included the clinical strains Escherichia coli expressing NDM-1 (CLB30005, CLB30016), Serratia marcescens expressing IMP-1 (CL5741), and Klebsiella pneumoniae expressing VIM-1 (IHMA599644). Inhibitor activity was measured in the presence and absence of imipenem in a 384-well microplate.
(§3) The clinical strains CLB30016, CL5741 and IHMA599644 were grown on trypticase soy agar containing 5% sheep's blood. The bacteria on agar plates were incubated at 35° C. with humidity overnight. The following day, individual colonies from each clinical strain were picked and resuspended in 5 ml saline to attain an OD600 of […], for CLB30016, CL5741 and IHMA599644, respectively. These were further diluted 1:100 into 1.1×CAMHB and used to inoculate the test wells as described below.
(§4) Imipenem in 10 mM 3-(N-morpholino)propanesulfonic acid (MOPS, pH 7) was stored in single use aliquots at −80° C. […] On the day of the assay, 4 μl of antibiotic was added to 45 ul of bacteria followed by 1 μl of test compound and mixed by pipetting and with an orbital shaker. The concentration of antibiotic used in the assay was 1 μg/ml. Microplates were covered and incubated at 35° C. for 22 hours to 24 hours. At the end of the incubation, absorbance was determined using a spectrophotometer.
(§5) For example, in general, the compounds of Examples 1-379 were determined to restore susceptibility to imipenem for one or more of the test organisms at concentrations of 100 μM or less.

In series [3] the test system is Klebsiella pneumoniae expressing VIM-1 (IHMA599644). It counts as cell-based. Particulars: with imipenem 1 μg/ml, 95% inhibition of bacterial growth; for Klebsiella pneumoniae MITC95: VIM-1 (IHMA599644). How it is done:
as §1, §2, §3, §4, §5

Series [4] deals with Serratia marcescens expressing IMP-1 (CL5741). It counts as cell-based. To be noted: with imipenem 1 μg/ml, 95% inhibition of bacterial growth; for Serratia marcescens MITC95: IMP-1 (CL5741). The protocol:
as §1, §2, §3, §4, §5

Series [5] has as its system P. aeruginosa expressing IMP-1, efflux+ (MB9798). In kind it is cell-based, Pseudomonas aeruginosa. Particulars: for P. aeruginosa expressing IMP-1, efflux+ (MB9798) MITC95: imipenem at 2 μg/mL, in the presence of a class A, C, D serine β-lactamase inhibitor closely related to relebactam; for Efflux ratio: ratio MITC95 PA_9798/MITC95 PA_9799. An excerpt: (§6) The strain background is Pseudomonas aeruginosa PAO1.

The subject of series [6] is P. aeruginosa expressing IMP-1, efflux− (MB9799). As to the kind of experiment: Efflux: concentration of MBL inhibitor which restores susceptibility to imipenem. Particulars: imipenem at 2 μg/mL, in the presence of a class A, C, D serine β-lactamase inhibitor closely related to relebactam. In kind it is cell-based, Pseudomonas aeruginosa.
Source text: as §6

Turning to `Nc1nc2cc(F)cc(-c3ccc(S(=O)(=O)C4CNC4)c(S(N)(=O)=O)c3-c3nnn[nH]3)c2[nH]1` [Example 296, 3-(2-amino-5-fluoro-1H-benzo[d]imidazol-7-yl)-6-(azetidin-3-ylsulfonyl)-2-(1H-tetrazol-5-yl)benzenesulfonamide], 0.227 nM corresponded to half-maximal inhibition in series [1] (IC50). For the same compound, in series [2], the “Escherichia coli MITC95” value was determined as 0.5859 µM. In addition, the “Klebsiella pneumoniae MITC95” value in series [3] is 1.172 µM. Further, the “Serratia marcescens MITC95” value in series [4] stood at 0.7813 µM. Moreover, in series [5], the “P. aeruginosa expressing IMP-1, efflux+ (MB9798) MITC95” value was 0.7813 µM and the Efflux ratio amounted to 1.00. For the same compound, the “P. aeruginosa expressing IMP-1, efflux− (MB9799) MITC95” value in series [6] stood at 0.7813 µM.

Regarding `CNc1ncc(-c2ccc(S(=O)(=O)C3CNC3)c(S(N)(=O)=O)c2-c2nnn[nH]2)cn1.O=C(O)C(F)(F)F` [Example 106, 3-((4-(2-(methylamino)pyrimidin-5-yl)-2-sulfamoyl-3-(1H-tetrazol-5-yl)phenyl)sulfonyl)azetidin-1-ium 2,2,2-trifluoroacetate], the half-inhibitory concentration (IC50) (commonly the concentration that gives 50% inhibition) in series [1] was 1.59 nM. Moreover, the “Escherichia coli expressing NDM-1 (CLB30016) MITC95” value in series [2] was 12.5 µM. In addition, the “Klebsiella pneumoniae expressing VIM-1 (IHMA599644) MITC95” value in series [3] was 6.25 µM. Besides, in series [4], the “Serratia marcescens expressing IMP-1 (CL5741) MITC95” value came out at 3.125 µM. In addition, in series [5], the “P. aeruginosa expressing IMP-1, efflux+ (MB9798) MITC95” value is 6.25 µM and the Efflux ratio was found to be 4.00. In addition, the “P. aeruginosa expressing IMP-1, efflux− (MB9799) MITC95” value in series [6] was found to be 1.563 µM.

Consider `Nc1nc2nccc(-c3ccc(S(=O)(=O)C4CNC4)c(S(N)(=O)=O)c3-c3nnn[nH]3)c2[nH]1` [Example 302], for which, in series [1], half-maximal inhibition (IC50) was put at 9.99 nM. For the same compound, in series [2], the “Escherichia coli MITC95” value was 3.125 µM. The “Klebsiella pneumoniae MITC95” value in series [3] amounted to 6.25 µM. Further, in series [4], the “Serratia marcescens MITC95” value came out at 12.5 µM. Besides, in series [5], the “P. aeruginosa expressing IMP-1, efflux+ (MB9798) MITC95” value was determined as 200 µM and the Efflux ratio stood at 16.00. Moreover, the “P. aeruginosa expressing IMP-1, efflux− (MB9799) MITC95” value in series [6] was found to be 12.5 µM.

In turn, `NC[C@H](O)CS(=O)(=O)c1ccc(-c2cccnc2N)c(-c2nn[nH]n2)c1S(N)(=O)=O` [Example 368, (S)-6-((3-amino-2-hydroxypropyl)sulfonyl)-3-(2-aminopyridin-3-yl)-2-(2H-tetrazol-5-yl) benzenesulfonamide] gave a half-inhibitory concentration (IC50) in series [1] of 0.561 nM. Also, in series [2], the “Escherichia coli MITC95” value stood at 0.1953 µM. In addition, the “Klebsiella pneumoniae MITC95” value in series [3] worked out at 2.344 µM. In addition, the “Serratia marcescens MITC95” value in series [4] worked out at 0.7813 µM. Moreover, in series [5], the “P. aeruginosa expressing IMP-1, efflux+ (MB9798) MITC95” value was 1.563 µM and the Efflux ratio is 1.33. Further, in series [6], the “P. aeruginosa expressing IMP-1, efflux− (MB9799) MITC95” value came to 1.172 µM.

As for `NS(=O)(=O)c1c(S(=O)(=O)C2CNC2)ccc(-c2cccc3c2C(=O)NS3(=O)=O)c1-c1nn[nH]n1` [Example 249, 6-(Azetidin-3-ylsulfonyl)-3-(1,1-dioxido-3-oxo-2,3-dihydrobenzo[d]isothiazol-4-yl)-2-(2H-tetrazol-5-yl)benzenesulfonamide], the midpoint of inhibition in series [1], the IC50, lay at 0.322 nM. Also, the “Escherichia coli MITC95” value in series [2] stood at 6.25 µM. In addition, the “Klebsiella pneumoniae MITC95” value in series [3] came out at 25 µM. In series [4], the “Serratia marcescens MITC95” value was 6.25 µM. Also, in series [5], the “P. aeruginosa expressing IMP-1, efflux+ (MB9798) MITC95” value came out at 12.5 µM and the Efflux ratio came out at 2.00. Besides, the “P. aeruginosa expressing IMP-1, efflux− (MB9799) MITC95” value in series [6] worked out at 6.25 µM.

For `NS(=O)(=O)c1c(S(=O)(=O)C2CNC2)ccc(-c2ccc(O)nc2)c1-c1nnn[nH]1.O=C(O)C(F)(F)F` [Example 109, 3-((4-(6-hydroxypyridin-3-yl)-2-sulfamoyl-3-(1H-tetrazol-5-yl)phenyl)sulfonyl)azetidin-1-ium 2,2,2-trifluoroacetate], the IC50 in series [1] turned out to be 1.44 nM. Further, the “Escherichia coli expressing NDM-1 (CLB30016) MITC95” value in series [2] was determined as 0.7813 µM. Also, the “Klebsiella pneumoniae expressing VIM-1 (IHMA599644) MITC95” value in series [3] was 3.125 µM. For the same compound, in series [4], the “Serratia marcescens expressing IMP-1 (CL5741) MITC95” value worked out at 1.563 µM. In series [5], the “P. aeruginosa expressing IMP-1, efflux+ (MB9798) MITC95” value was determined as 12.5 µM and the Efflux ratio amounted to 8.00. The “P. aeruginosa expressing IMP-1, efflux− (MB9799) MITC95” value in series [6] is 1.563 µM.

For `C[C@@H](CN)S(=O)(=O)c1ccc(-c2cccc3nc(N)[nH]c23)c(-c2nn[nH]n2)c1S(N)(=O)=O` [Example 278, 3-(2-amino-3H-benzo[d]imidazol-4-yl)-6-((S)-1-aminopropan-2-ylsulfonyl)-2-(2H-tetrazol-5-yl)benzenesulfonamide], the IC50 in series [1] is 0.365 nM. In addition, in series [2], the “Escherichia coli MITC95” value turned out to be 0.3906 µM. Moreover, the “Klebsiella pneumoniae MITC95” value in series [3] came to 1.563 µM. The “Serratia marcescens MITC95” value in series [4] stood at 0.7813 µM. In series [5], the “P. aeruginosa expressing IMP-1, efflux+ (MB9798) MITC95” value is 1.563 µM and the Efflux ratio is reported as 2.00. In addition, the “P. aeruginosa expressing IMP-1, efflux− (MB9799) MITC95” value in series [6] was 0.7813 µM.

As for `Nc1cnccc1-c1ccc(S(=O)(=O)C2CNC2)c(S(N)(=O)=O)c1-c1nnn[nH]1.O=C(O)C(F)(F)F` [Example 105, 3-((4-(3-aminopyridin-4-yl)-2-sulfamoyl-3-(1H-tetrazol-5-yl)phenyl)sulfonyl)azetidin-1-ium 2,2,2-trifluoroacetate], the IC50 in series [1] worked out at 0.759 nM. Besides, in series [2], the “Escherichia coli expressing NDM-1 (CLB30016) MITC95” value turned out to be 3.125 µM. Besides, in series [3], the “Klebsiella pneumoniae expressing VIM-1 (IHMA599644) MITC95” value was 3.125 µM. The “Serratia marcescens expressing IMP-1 (CL5741) MITC95” value in series [4] worked out at 1.563 µM. Moreover, in series [5], the “P. aeruginosa expressing IMP-1, efflux+ (MB9798) MITC95” value is 3.125 µM and the Efflux ratio came out at 2.00. Also, the “P. aeruginosa expressing IMP-1, efflux− (MB9799) MITC95” value in series [6] was 1.563 µM.

In series [1], `Nc1nc2ccc(-c3ccc(S(=O)(=O)C4CCNCC4)c(S(N)(=O)=O)c3-c3nn[nH]n3)cc2[nH]1` [Example 41, 3-(2-amino-3H-benzo[d]imidazol-5-yl)-6-(piperidin-4-ylsulfonyl)-2-(2H-tetrazol-5-yl)benzenesulfonamide] returned an IC50 of 0.171 nM. Moreover, in series [2], the “Escherichia coli expressing NDM-1 (CLB30016) MITC95” value was determined as 1.563 µM. In addition, in series [3], the “Klebsiella pneumoniae expressing VIM-1 (IHMA599644) MITC95” value is 1.563 µM. For the same compound, in series [4], the “Serratia marcescens expressing IMP-1 (CL5741) MITC95” value was 1.563 µM. In series [5], the “P. aeruginosa expressing IMP-1, efflux+ (MB9798) MITC95” value came out at 3.125 µM and the Efflux ratio turned out to be 4.00. Besides, in series [6], the “P. aeruginosa expressing IMP-1, efflux− (MB9799) MITC95” value turned out to be 0.7813 µM.

Compound `NCCS(=O)(=O)c1ccc(-c2ccnc3nc(N)[nH]c23)c(-c2nnn[nH]2)c1S(N)(=O)=O` [Example 303, 3-(2-amino-1H-imidazo[4,5-b]pyridin-7-yl)-6-((2-aminoethyl)sulfonyl)-2-(1H-tetrazol-5-yl)benzenesulfonamide] registered an IC50 in series [1] of 11.3 nM. Moreover, the “Escherichia coli MITC95” value in series [2] is 3.125 µM. The “Klebsiella pneumoniae MITC95” value in series [3] is 3.125 µM. For the same compound, the “Serratia marcescens MITC95” value in series [4] turned out to be 6.25 µM. In addition, in series [5], the “P. aeruginosa expressing IMP-1, efflux+ (MB9798) MITC95” value turned out to be 100 µM and the Efflux ratio is listed as 32.00. Moreover, the “P. aeruginosa expressing IMP-1, efflux− (MB9799) MITC95” value in series [6] stood at 3.125 µM.

`NC[C@@H](O)CS(=O)(=O)c1ccc(-c2cccnc2N)c(-c2nn[nH]n2)c1S(N)(=O)=O` [Example 367, (R)-6-((3-amino-2-hydroxypropyl)sulfonyl)-3-(2-aminopyridin-3-yl)-2-(2H-tetrazol-5-yl) benzenesulfonamide] displayed an IC50 in series [1] of 0.703 nM. In series [2], the “Escherichia coli MITC95” value came out at 0.1953 µM. In addition, in series [3], the “Klebsiella pneumoniae MITC95” value stood at 1.563 µM. The “Serratia marcescens MITC95” value in series [4] came to 0.7813 µM. Also, in series [5], the “P. aeruginosa expressing IMP-1, efflux+ (MB9798) MITC95” value was determined as 1.563 µM and the Efflux ratio came to 1.00. Besides, the “P. aeruginosa expressing IMP-1, efflux− (MB9799) MITC95” value in series [6] came out at 1.563 µM.
